This is an account of results in patent US9034921B2, “Diphenylmethane derivatives as SGLT2 inhibitors” (GREEN CROSS CORPORATION, priority 2011, dated 2015).

Sequence of human SGLT2 (P31639 whole entry): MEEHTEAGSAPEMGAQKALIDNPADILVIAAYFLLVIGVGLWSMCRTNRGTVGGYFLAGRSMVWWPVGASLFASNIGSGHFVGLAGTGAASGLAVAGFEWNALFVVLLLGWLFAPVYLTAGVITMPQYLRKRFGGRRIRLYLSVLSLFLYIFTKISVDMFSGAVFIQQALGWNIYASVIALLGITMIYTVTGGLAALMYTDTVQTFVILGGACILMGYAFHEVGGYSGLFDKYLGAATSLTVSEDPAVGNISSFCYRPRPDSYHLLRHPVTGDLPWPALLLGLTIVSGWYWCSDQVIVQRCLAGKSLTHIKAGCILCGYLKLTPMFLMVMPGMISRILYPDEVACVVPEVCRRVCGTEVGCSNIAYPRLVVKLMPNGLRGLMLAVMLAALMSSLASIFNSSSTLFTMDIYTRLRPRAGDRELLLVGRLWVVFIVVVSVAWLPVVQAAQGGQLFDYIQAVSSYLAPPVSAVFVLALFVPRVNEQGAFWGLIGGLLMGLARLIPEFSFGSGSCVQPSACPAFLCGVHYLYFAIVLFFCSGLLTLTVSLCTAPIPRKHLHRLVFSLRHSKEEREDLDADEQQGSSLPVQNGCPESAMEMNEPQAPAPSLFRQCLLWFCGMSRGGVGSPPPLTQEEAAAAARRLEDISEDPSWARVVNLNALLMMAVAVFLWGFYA

For the test, the target named is human SGLT2 (Homo sapiens (Human), UniProt P31639). Kind of test: Inhibitory effects on human SGLT2 activities (14C-AMG uptake, sodium-dependent glucose transport assay). The test is classed as cell-based. The note with it: CHO cells stably expressing hSGLT2, 37° C., 2 h, single determinations. The text has this:
Test 1: Cloning and Cell Line Construction for Human SGLT2
Human SGLT2 (hSGLT2) gene was amplified by PCR from cDNA-Human Adult Normal Tissue Kidney (Invitrogen). The hSGLT2 sequence was cloned into pcDNA3.1(+) for mammalian expression and stably transfected into chinese hamster ovary (CHO) cells. SGLT2-expressing clones were selected based on resistance to G418 antibiotic (Geneticin) and activity in the ^14C-α-methyl-D-glucopyranoside (^14C-AMG) uptake assay.
Test 2: Inhibitory Effects on Human SGLT2 Activities
For sodium-dependent glucose transport assay, cells expressing hSGLT2 were seeded into a 96-well culture plate at a density of 5×10^4 cells/well in RPMI medium 1640 containing 10% fetal bovine serum. The cells were used 1 day after plating. They were incubated in pretreatment buffer (10 mM HEPES, 5 mM Tris, 140 mM choline chloride, 2 mM KCl, 1 mM CaCl2, and 1 mM MgCl2, pH 7.4) at 37° C. for 10 min. They were then incubated in uptake buffer (10 mM HEPES, 5 mM Tris, 140 mM NaCl, 2 mM KCl, 1 mM CaCl2, 1 mM MgCl2, and 1 mM ^14C-nonlabeled AMG pH 7.4) containing ^14C-labeled AMG (8 μM) and the inventive compound or dimethyl sulfoxide (DMSO) vehicle at 37° C. for 2 h. Cells were washed twice with washing buffer (pretreatment buffer containing 10 mM AMG at room temperature) and then the radioactivity was measured using a liquid scintillation counter. IC50 was determined by nonlinear regression analysis using GraphPad PRISM [Katsuno, K. et al. J. Pharmacol. Exp. Ther. 2007, 320, 323-330; Han, S. et al. Diabetes, 2008, 57, 1723-1729].
Broadly, the IC50 is the concentration that inhibits the measured activity by half. A high value points to weaker potency. In turn, `Cc1c(Cc2ccc(C3CC3)cc2)cc([C@@H]2O[C@H](CO)[C@@H](O)[C@H](O)[C@H]2O)c2c1OCC2` [Example E178, (2S,3R,4R,5S,6R)-2-(6-(4-Cyclopropylbenzyl)-7-methyl-2,3-dihydrobenzofuran-4-yl)-6-(hydroxymethyl)tetrahydro-2H-pyran-3,4,5-triol] showed an IC50 of 1.16 nM.

In turn, `CC(C)Oc1ccc(Cc2cc([C@@H]3O[C@H](CO)[C@@H](O)[C@H](O)[C@H]3O)c3c(c2Cl)OCC3)cc1` [Example E205, (2S,3R,4R,5S,6R)-2-(7-Chloro-6-(4-isopropoxybenzyl)-2,3-dihydrobenzofuran-4-yl)-6-(hydroxymethyl)tetrahydro-2H-pyran-3,4,5-triol] returned a half-inhibitory concentration (IC50) of 1.96 nM. As for `OC[C@H]1O[C@@H](c2cc(Cc3ccc(C(F)F)cc3)c(Cl)c3c2CCO3)[C@H](O)[C@@H](O)[C@@H]1O` [Example E176, (2S,3R,4R,5S,6R)-2-(7-Chloro-6-(4-(difluoromethyl)benzyl)-2,3-dihydrobenzofuran-4-yl)-6-(hydroxymethyl)tetrahydro-2H-pyran-3,4,5-triol], the midpoint of inhibition, the IC50, lay at 1.14 nM. In turn, `CC1Cc2c([C@@H]3O[C@H](CO)[C@@H](O)[C@H](O)[C@H]3O)cc(Cc3ccc(C4CC4)cc3)c(Cl)c2O1` (stereo partly drawn) [Example E138, (2S,3R,4R,5S,6R)-2-(7-Chloro-6-(4-cyclopropylbenzyl)-2-methyl-2,3-dihydrobenzofuran-4-yl)-6-(hydroxymethyl)tetrahydro-2H-pyran-3,4,5-triol] showed an IC50 of 1.13 nM. The same measure for `OC[C@H]1O[C@@H](c2cc(Cc3ccc(OC4CCC4)cc3)c(Cl)c3c2CCO3)[C@H](O)[C@@H](O)[C@@H]1O` [Example E234, (2S,3R,4R,5S,6R)-2-(7-Chloro-6-(4-cyclobutoxybenzyl)-2,3-dihydrobenzofuran-4-yl)-6-(hydroxymethyl)-tetrahydro-2H-pyran-3,4,5-triol]: 2.82 nM.

In turn, `CCc1ccc(Cc2cc([C@@H]3O[C@H](CO)[C@@H](O)[C@H](O)[C@H]3O)c3c(c2Cl)NCCO3)cc1` [Example E214, (2S,3R,4R,5S,6R)-2-(5-Chloro-6-(4-ethylbenzyl)-3,4-dihydro-2H-benzo[b][1,4]oxazin-8-yl)-6-(hydroxymethyl)tetrahydro-2H-pyran-3,4,5-triol] registered an IC50 of 3.17 nM. To `OC[C@H]1O[C@@H](c2ccc(Cl)c(Cc3ccc4c(cnn4Cc4ccccc4)c3)c2)[C@H](O)[C@@H](O)[C@@H]1O` [Example E033, (2S,3R,4R,5S,6R)-2-(3-((1-Benzyl-1H-indazol-5-yl)methyl)-4-chlorophenyl)-6-(hydroxymethyl)tetrahydro-2H-pyran-3,4,5-triol] belongs 2.39 nM; to `CCc1ccc(Cc2cc([C@@H]3O[C@H](CO)[C@@H](O)[C@H](O)[C@H]3O)c3c(c2Cl)CCCO3)cc1` [Example E017, (2S,3R,4R,5S,6R)-2-(5-Chloro-6-(4-ethylbenzyl)chroman-8-yl)-6-(hydroxymethyl)tetrahydro-2H-pyran-3,4,5-triol], 0.845 nM; to `CCOc1ccc(Cc2cc([C@@H]3O[C@H](CO)[C@@H](O)[C@H](O)[C@H]3O)c3c(c2Cl)OCC3)cc1` [Example E024, (2S,3R,4R,5S,6R)-2-(7-Chloro-6-(4-ethoxybenzyl)-2,3-dihydrobenzofuran-4-yl)-6-(hydroxymethyl)tetrahydro-2H-pyran-3,4,5-triol], 1.52 nM. `OC[C@H]1O[C@@H](c2cc(Cc3ccc(C4CC4)cc3)c(Cl)c3c2OCO3)[C@H](O)[C@@H](O)[C@@H]1O` [Example E158, (2S,3R,4R,5S,6R)-2-(7-Chloro-6-(4-cyclopropylbenzyl)benzo[d][1,3]dioxol-4-yl)-6-(hydroxymethyl)tetrahydro-2H-pyran-3,4,5-triol] came in with an IC50 of 0.366 nM. Against the preceding compound, the IC50 is about 4.2-fold lower.

Turning to `CCc1ccc(Cc2cc([C@@H]3O[C@H](CO)[C@@H](O)[C@H](O)[C@H]3O)c3c(c2Cl)OCCCO3)cc1` [Example E165, (2S,3R,4R,5S,6R)-2-(9-Chloro-8-(4-ethylbenzyl)-3,4-dihydro-2H-benzo[b][1,4]dioxepin-6-yl)-6-(hydroxymethyl)tetrahydro-2H-pyran-3,4,5-triol], it took 1.08 nM to reach half-maximal inhibition (IC50). In the case of `OC[C@H]1O[C@@H](c2ccc(Cl)c(Cc3ccc4nccnc4c3)c2)[C@H](O)[C@@H](O)[C@@H]1O` [Example E026, (2S,3R,4R,5S,6R)-2-(4-Chloro-3-(quinoxalin-6-ylmethyl)phenyl)-6-(hydroxymethyl)tetrahydro-2H-pyran-3,4,5-triol], the midpoint of inhibition, the IC50, lay at 8.63 nM.

With `CCOc1ccc(Cc2cc([C@@H]3O[C@H](CO)[C@@H](O)[C@H](O)[C@H]3O)cc(-c3cccc(C#N)c3)c2C)cc1` [Example E087, 3′-(4-Ethoxybenzyl)-2′-methyl-5′-((2S,3R,4R,5S,6R)-3,4,5-trihydroxy-6-(hydroxymethyl)-tetrahydro-2H-pyran-2-yl)biphenyl-3-carbonitrile], half-maximal inhibition (IC50) was put at 38.9 nM. Turning to `OC[C@H]1O[C@@H](c2cc(Cc3ccc(OC4COC4)cc3)c(Cl)c3c2CCO3)[C@H](O)[C@@H](O)[C@@H]1O` [Example E204, (2S,3R,4R,5S,6R)-2-(7-Chloro-6-(4-(oxetan-3-yloxy)benzyl)-2,3-dihydrobenzofuran-4-yl)-6-(hydroxymethyl)tetrahydro-2H-pyran-3,4,5-triol], the 50% inhibitory concentration (IC50) was 5.05 nM. Compared with the last compound, the IC50 is about 7.7-fold lower. Turning to `OC[C@H]1O[C@@H](c2cc(Cc3ccc(C(F)(F)F)cc3)c(Cl)c3c2OCC3)[C@H](O)[C@@H](O)[C@@H]1O` [Example E122, (2S,3R,4R,5S,6R)-2-(4-Chloro-5-(4-(trifluoromethyl)benzyl)-2,3-dihydrobenzofuran-7-yl)-6-(hydroxymethyl)tetrahydro-2H-pyran-3,4,5-triol], the concentration for half-maximal inhibition (IC50) was 1.97 nM. To `C#CC(C)(O)c1ccc(Cc2cc([C@@H]3O[C@H](CO)[C@@H](O)[C@H](O)[C@H]3O)c3c(c2Cl)OCC3)cc1` (stereo partly drawn) [Example E179, (2S,3R,4R,5S,6R)-2-(7-Chloro-6-(4-(2-hydroxybut-3-yn-2-yl)benzyl)-2,3-dihydrobenzofuran-4-yl)-6-(hydroxymethyl)tetrahydro-2H-pyran-3,4,5-triol] belongs 5.2 nM. For the compound `CO[C@H]1O[C@@H](c2ccc(Cl)c(Cc3ccc4c(c3)OCCO4)c2)[C@H](O)[C@@H](O)[C@@H]1O` [Example E092, (2S,3R,4R,5S,6S)-2-(4-Chloro-3-((2,3-dihydrobenzo[b][1,4]dioxin-6-yl)methyl)phenyl)-6-methoxy-tetrahydro-2H-pyran-3,4,5-triol], the 50% inhibitory concentration (IC50) was 8.65 nM. In turn, `Cn1ccc2cc(Cc3cc([C@@H]4O[C@H](CO)[C@@H](O)[C@H](O)[C@H]4O)ccc3Cl)ccc21` [Example E034, (2S,3R,4R,5S,6R)-2-(4-Chloro-3-((1-methyl-1H-indol-5-yl)methyl)phenyl)-6-(hydroxymethyl)tetrahydro-2H-pyran-3,4,5-triol] showed an IC50 of 2.98 nM. To `COc1cc(Cl)c(Cc2ccc3c(c2)OCCO3)cc1[C@@H]1O[C@H](SC)[C@@H](O)[C@H](O)[C@H]1O` [Example E095, (2S,3R,4R,5S,6R)-2-(4-Chloro-5-((2,3-dihydrobenzo[b][1,4]dioxin-6-yl)methyl)-2-methoxyphenyl)-6-(methylthio)-tetrahydro-2H-pyran-3,4,5-triol] belongs 0.628 nM. `CCOc1ccc(Cc2cc([C@@H]3O[C@H](CO)[C@@H](O)[C@H](O)[C@H]3O)c3c(c2Cl)CC(C)O3)cc1` (stereo partly drawn) [Example E011, (2S,3R,4R,5S,6R)-2-(4-Chloro-5-(4-ethoxybenzyl)-2-methyl-2,3-dihydrobenzofuran-7-yl)-6-(hydroxymethyl)tetrahydro-2H-pyran-3,4,5-triol] returned a half-maximal inhibitory concentration (IC50) of 1.28 nM. As to `OC[C@H]1O[C@@H](c2cc(Cc3ccc4c(c3)OCCO4)c(Cl)cc2O)[C@H](O)[C@@H](O)[C@@H]1O` [Example E052, (2S,3R,4R,5S,6R)-2-(4-Chloro-5-((2,3-dihydrobenzo[b][1,4]dioxin-6-yl)methyl)-2-hydroxyphenyl)-6-(hydroxymethyl)-tetrahydro-2H-pyran-3,4,5-triol], the half-maximal inhibitory concentration (IC50) was determined as 1.64 nM.

Turning to `COc1ccc(Cc2cc([C@@H]3O[C@H](OC)[C@@H](O)[C@H](O)[C@H]3O)c3c(c2Br)CCC3)cc1` [Example E097, (2S,3R,4R,5S,6S)-2-(7-Bromo-6-(4-methoxybenzyl)-2,3-dihydro-1H-inden-4-yl)-6-methoxy-tetrahydro-2H-pyran-3,4,5-triol], the midpoint of inhibition, the IC50, lay at 3.83 nM.

In the case of `CS[C@H]1O[C@@H](c2ccc(Cl)c(Cc3ccc4c(c3)OCCO4)c2)[C@H](O)[C@@H](O)[C@@H]1O` [Example E091, (2S,3R,4R,5S,6R)-2-(4-Chloro-3-((2,3-dihydrobenzo[b][1,4]dioxin-6-yl)methyl)phenyl)-6-(methylthio)tetrahydro-2H-pyran-3,4,5-triol], half-maximal inhibition (IC50) was put at 0.629 nM. Turning to `OC[C@H]1O[C@@H](c2ccc(Cl)c(Cc3ccc4c(c3)SCO4)c2)[C@H](O)[C@@H](O)[C@@H]1O` [Example E066, (2S,3R,4R,5S,6R)-2-(3-(Benzo[d][1,3]oxathiol-5-ylmethyl)-4-chlorophenyl)-6-(hydroxymethyl)-tetrahydro-2H-pyran-3,4,5-triol], the half-inhibitory concentration (IC50) came out at 3.67 nM. This IC50 is about 5.8-fold higher than that of the compound before.
